The assay in a line: Inhibition of first mitotic cell division in Asterina pectinifera fertilized eggs assessed as minimum effective concentration. Format: functional. Conditions: Patiria pectinifera, Egg; read-out: MEC.

The results in this text go back to ChEMBL document CHEMBL1146464, “Two new analogues of the cytotoxic substance BE-52211 from Streptomyces sp” (2004).

Turning to `C=CCc1cc(C)ccc1/C(C)=C\C(C)=C\CCC[C@H](O)CNC(C)=O`, the minimal effective concentration stood at 2.5 µg/mL.
To `C/C=C\c1cc(C)ccc1/C(C)=C\C(C)=C\CCC[C@H](O)CNC(C)=O` belongs 2.5 µg/mL.
